In patent US20150265682A1, “THERAPEUTIC METHODS AND COMPOSITIONS FOR TREATING DIABETES” (Orient Europharma Co., Ltd., priority 2014, published 2015):

Legend:
Format in all cases: in vivo, ICR mice
[1] = test system: IR, Akt, AS160, GLUT2 and PEPCK in liver of mice with type 1 DM; test: Western blot of insulin signaling pathway in liver after 7-day borapetoside A; conditions: type 1 DM mice; 10 mgkg^−1 twice a day for 7 days
Protocol: After three days of acclimatization, the mice had free access to a standard rodent chow (normal mice), a standard rodent chow after single […] streptozotocin (STZ) intraperitoneal injection (T1DM mice), and a fat-rich chow diet and fructose-sweetened water (T2DM mice) for 4 weeks. The induction of Type 1 DM was assessed and confirmed when the mice had plasma glucose levels ≧350 mgdL^−1, accompanied with polyuria, hyperphagia and decreased body weight. The induction Type 2 DM in the mice was assessed by measuring fasting plasma glucose levels and confirmed when plasma glucose level was ≧150 mgdL^−1 after the 4-week induction. The animals were assigned randomly into three groups, with seven animals in each group. In group I, the mice were treated with vehicle, 2% DMSO in normal saline, as the negative control. In group II, the mice were intraperitoneally treated with borapetoside A (0.1-10 mgkg^−1). In group Ill, the positive control, the mice received intraperitoneally metformin (300 mgkg^−1; Sigma Chemical Co., St. Louis, Mo., U.S.A.) or insulin (0.5 IUkg^−1; Insulin Actrapid® HM; Novo Nordisk, Denmark). In the acute study, mice under anesthesia received a single intraperitoneal administration of borapetoside A, negative control, or positive control. In the subacute study, mice received intraperitoneal administrations of borapetoside A, vehicle, or insulin twice a day for seven days.
Western blot analysis was carried out by known methods with a slight modification. Briefly, tissues were homogenized in T-PER® Tissue Protein Extraction Reagent (Pierce Biotechnology, Rockford, Ill.) with Halt™ Protease Inhibitor Single-Use Cocktail (Pierce Biotechnology, Rockford, Ill.). Liver homogenates were prepared by mechanical homogenization (Polytron PT3100, Luzernerstrasse, Switzerland). After centrifuging the homogenates at 10,000 g for 30 minutes, the protein concentrations were determined by using a BCA Protein Assay Kit (Pierce Biotechnology, Rockford, Ill.). Later, 60 μg of protein preparations were applied on 10% sodium dodecyl sulfate-polyacrylamide gel for electrophoresis and then transferred to polyvinylidene difluoride membranes (Millipore, Billerica, Mass.). The membranes were analysed by using the antibodies against phospho-insulin receptor β (IRβ) (Tyr^1345), phospho-Akt (Ser^473), phosphor-AS160 (Thr^642), AS160 (Cell Signaling Technology, Beverly, Mass.), IRβ, Akt, β-Actin (Santa Cruz Biotechnology, Santa Cruz, Calif.), GLUT2 (Abcam, Cambridge, UK), and PEPCK (a gift from Professor DK Granner), respectively. Chemiluminescence detection and image analysis was performed with UVP-Biochimie Bioimager and Lab Works software (UVP, Upland, Calif.). The intensity of each band was quantified with ImageQuant.

[2] = test system: IR, Akt and GLUT2 in liver of T1DM mice; test: Western blot of IR-related signaling mediators in liver after 7-day borapetoside C, alone or with insulin
Protocol: (§1) T1DM mice were induced by a known method. In brief, an intraperitoneal injection of streptozotocin (STZ; Sigma Chemical Co.; St. Louis, Mo.) at 150 mg/kg was performed in mice that were fasted for 48 h. The induction of T1DM was assessed and confirmed when the mice had plasma glucose levels ≧350 mg/dL, accompanied with polyuria, hyperphagia and decreased body weight. The control mice group received an injection of vehicle and then carried out for 4 weeks. T2DM mice were induced by maintaining on a fat-rich chow diet and fructose-sweetened water for 4 weeks from the age of 4-5 weeks according to previous methods. The induction T2DM mice were assessed by measuring fasting plasma glucose levels and confirmed when plasma glucose level was ≧150 mg/dL after a 4-week induction.
After treatment, the mice were sacrificed by cervical dislocation under anesthesia.
The liver was immediately frozen in liquid nitrogen. The liver tissue was preserved at −80° C. before they were used for further assays.
Tissues were homogenized in T-PER® Tissue Protein Extraction Reagent (Pierce Biotechnology, Rockford, Ill.) with Halt™ Protease Inhibitor Single-Use Cocktail (Pierce Biotechnology, Rockford, Ill.). Liver homogenates were prepared by mechanical homogenization (Polytron PT3100, Luzernerstrasse, Switzerland). After centrifuging the homogenates at 10,000 g for 30 min, the supernatants were collected and frozen at −80° C. for further use. The protein concentrations were determined by using a BCA Protein Assay Kit (Pierce Biotechnology, Rockford, Ill.). For western blot analysis, about 60 μg of protein preparations were applied on 10% sodium dodecyl sulfate-polyacrylamide gel electrophoresis and then transferred to polyvinylidene difluoride membranes (Millipore, Billerica, Mass.). The membranes were blocked with 5% (w/v) non-fat dry milk in phosphate buffered saline (PBS) containing 0.1% Tween 20 (PBS-T). After blocking, the blotted membrane was incubated with anti-phospho-insulin receptor β (IRβ) (Tyr^1345), phospho-Akt (Ser^473) (Cell Signaling Technology, Beverly, Mass.), anti-IRβ, Akt, β-Actin (Santa Cruz Biotechnology, Santa Cruz, Calif.), and anti-GLUT2 antibodies (Abcam, Cambridge, UK) in presence of 3% bovine serum albumin (BSA) in PBS-T buffer. Following the incubation, the membranes were washed 3 times with PBS-T for 15 min each and then incubated with the appropriate peroxidase-conjugated secondary antibodies (Santa Cruz. Biotechnology, USA) in PBS-T. After removal of the secondary antibody, blots were washed and developed using the enhanced chemiluminescenece (ECL) western blotting system (Millipore, Billerica, Mass.). The density of the protein bands were quantified using ImageQuant.

[3] = test system: non-diabetic, T1DM and T2DM mice; test: Plasma glucose after bolus intraperitoneal borapetoside C
Protocol: as §1
Blood samples were collected from the orbital vascular plexus of mice under anesthesia with sodium pentobarbital (80 mg/kg, intraperitoneal, Sigma Chemical Co., St. Louis, Mo., USA). Blood samples were then centrifuged at 13000 rpm for 5 min, and the plasma was kept on ice prior to the assay. The plasma glucose concentration was measured using commercial kits following manufacturer's instructions (BioSystems S. A., Barcelona, Spain).

[4] = borapetoside C 0.1 mg/kg twice daily, alone or with insulin 1.0 IU/kg twice daily
[5] = borapetoside C 5.0 mg/kg vs insulin 0.5 IU/kg twice daily

| SMILES | PEPCK expression in liver [1] | expression of GLUT2 in liver [1] | phosphorylated AS160 in liver [1] | phosphorylated Akt in liver [1] | phosphorylated IR in liver [1] | expression of GLUT2 in liver ([2]; 5.0 mg/kg twice daily) | level of phosphorylated Akt in liver ([2]; 5.0 mg/kg twice daily) | level of phosphorylated IR in liver ([2]; 5.0 mg/kg twice daily) | GLUT2 in liver vs vehicle-treated [2, 4] | serine phosphorylation of Akt in liver vs vehicle-treated [2, 4] | tyrosine phosphorylation of IR in liver vs vehicle-treated [2, 4] | phosphorylation of Akt and GLUT2 expression compared with the effect of insulin [2, 5] | phosphorylation of IR compared with the effect of insulin [2, 5] | plasma glucose concentrations ([3]; bolus i.p. 0.5 to 5 mg/kg, non-diabetic, T1DM and T2DM mice) | plasma glucose levels ([3]; borapetoside C at 0.1 mg/kg alone) |
| --- | --- | --- | --- | --- | --- | --- | --- | --- | --- | --- | --- | --- | --- | --- | --- |
| C[C@@]12C[C@@H](c3ccoc3)OC(=O)[C@@H]1C[C@@H]1OC(=O)[C@@]3(O)[C@@H](O[C@@H]4O[C@H](CO)[C@@H](O)[C@H](O)[C@H]4O)CC[C@@H]2[C@@]13C [Borapetoside A, borapetoside A] | significant decrease | increased | increased | increased | increased |  |  |  |  |  |  |  |  |  |  |
| COC(=O)C1=CCC[C@H]2[C@]3(C)C[C@@H](c4ccoc4)OC(=O)[C@@H]3C[C@@H](O[C@@H]3O[C@H](CO)[C@@H](O)[C@H](O)[C@H]3O)[C@@]12C [Borapetoside C, borapetoside C] |  |  |  |  |  | increased | increased | increased | not significantly increased | not significantly increased | not significantly increased | less phosphorylation of Akt and GLUT2 expression | more phosphorylation of IR | significantly lowered plasma glucose concentrations in a dose-dependent manner | did not alter the plasma glucose levels |
